ChEMBL document CHEMBL1201862, “PubChem BioAssay data set” (2004)
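Values below derive from 48-hour exposures of cells grown in 96-well plates, with endpoints linearly interpolated between the two concentrations bracketing the appropriate inhibition level. GI50 marks 50% less growth.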 Activity calls are given as the source filed them. No stated cut-off is given here; in the data, active = GI50 up to about 1.1 µM and inactive = higher.

Legend:
Experiment in all cases: NCI anticancer screen, dose series, 48 h
SK-OV-3 = tested on: SK-OV-3
SK-MEL-28 = tested on: SK-MEL-28
EKVX = tested on: EKVX
SF-539 = tested on: SF-539
HOP-92 = tested on: HOP-92
SNB-19 = tested on: SNB-19
LOX IMVI = tested on: LOX IMVI
U-251 = tested on: U-251
MDA-MB-435 = tested on: MDA-MB-435
NCI/ADR-RES = tested on: NCI/ADR-RES
UO-31 = tested on: UO-31
ACHN = tested on: ACHN
MDA-N = tested on: MDA-N
OVCAR-8 = tested on: OVCAR-8
HCT-116 = tested on: HCT-116
NCI-H460 = tested on: NCI-H460
786-0 = tested on: 786-0
HOP-62 = tested on: HOP-62
CAKI-1 = tested on: CAKI-1
A549 = tested on: A549
COLO 205 = tested on: COLO 205
CCRF-CEM = tested on: CCRF-CEM
UACC-257 = tested on: UACC-257
HT-29 = tested on: HT-29
OVCAR-4 = tested on: OVCAR-4
SK-MEL-5 = tested on: SK-MEL-5
HCT-15 = tested on: HCT-15
SF-268 = tested on: SF-268
NCI-H522 = tested on: NCI-H522
SK-MEL-2 = tested on: SK-MEL-2
PC-3 = tested on: PC-3
SR = tested on: SR
Malme-3M = tested on: Malme-3M
MDA-MB-231 = tested on: MDA-MB-231
DU-145 = tested on: DU-145
UACC-62 = tested on: UACC-62
TK-10 = tested on: TK-10
IGROV-1 = tested on: IGROV-1
Hs-578T = tested on: Hs-578T
RXF 393 = tested on: RXF 393
MOLT-4 = tested on: MOLT-4
MCF7 = tested on: MCF7
A498 = tested on: A498
M14 = tested on: M14
BT-549 = tested on: BT-549
K562 = tested on: K562
SN12C = tested on: SN12C
SNB-75 = tested on: SNB-75
HL-60 = tested on: HL-60
OVCAR-3 = tested on: OVCAR-3
OVCAR-5 = tested on: OVCAR-5
HCC 2998 = tested on: HCC 2998
T47D = tested on: T47D
KM12 = tested on: KM12
SF-295 = tested on: SF-295
NCI-H226 = tested on: NCI-H226
RPMI-8226 = tested on: RPMI-8226
SW-620 = tested on: SW-620
NCI-H23 = tested on: NCI-H23

## Cc1cc(O)c2c(c1)CC(O)C1=C2C(=O)c2c(O)ccc(OC3CC(O)C(OC4CC(OC5CCC(O)C(C)O5)C(O)C(C)O4)C(C)O3)c2C1=O (centres undefined)
SK-OV-3
  GI50: 2.33 µM (inactive)
SK-MEL-28
  GI50: 1.92 µM (inactive)
EKVX
  GI50: 1.89 µM (inactive)
SF-539
  GI50: 1.85 µM (inactive)
HOP-92
  GI50: 1.86 µM (inactive)
SNB-19
  GI50: 1.6 µM (inactive)
LOX IMVI
  GI50: 1.33 µM (inactive)
U-251
  GI50: 1.32 µM (inactive)
MDA-MB-435
  GI50: 1.03 µM (active)
NCI/ADR-RES
  GI50: 2.93 µM (inactive)
UO-31
  GI50: 1.5 µM (inactive)
ACHN
  GI50: 1.58 µM (inactive)
MDA-N
  GI50: 1.84 µM (inactive)
OVCAR-8
  GI50: 1.65 µM (inactive)
HCT-116
  GI50: 1.75 µM (inactive)
NCI-H460
  GI50: 2.16 µM (inactive)
786-0
  GI50: 1.42 µM (inactive)
HOP-62
  GI50: 1.59 µM (inactive)
CAKI-1
  GI50: 1.71 µM (inactive)
A549
  GI50: 2.33 µM (inactive)
COLO 205
  GI50: 1.39 µM (inactive)
CCRF-CEM
  GI50: 0.203 µM (active)
UACC-257
  GI50: 1.57 µM (inactive)
HT-29
  GI50: 2.27 µM (inactive)
OVCAR-4
  GI50: 1.79 µM (inactive)
SK-MEL-5
  GI50: 1.43 µM (inactive)
HCT-15
  GI50: 1.96 µM
SF-268
  GI50: 1.74 µM (inactive)
NCI-H522
  GI50: 0.964 µM (active)
SK-MEL-2
  GI50: 1.58 µM (inactive)
PC-3
  GI50: 1.71 µM (inactive)
SR
  GI50: 0.324 µM (active)
Malme-3M
  GI50: 0.789 µM (active)
MDA-MB-231
  GI50: 1.77 µM (inactive)
DU-145
  GI50: 1.72 µM (inactive)
UACC-62
  GI50: 1.68 µM (inactive)
TK-10
  GI50: 2.17 µM (inactive)
IGROV-1
  GI50: 1.47 µM (inactive)
Hs-578T
  GI50: 2.62 µM (inactive)
RXF 393
  GI50: 1.46 µM (inactive)
MOLT-4
  GI50: 0.305 µM (active)
MCF7
  GI50: 1.39 µM (inactive)
A498
  GI50: 2.33 µM (inactive)
M14
  GI50: 1.5 µM (inactive)
BT-549
  GI50: 1.86 µM (inactive)
K562
  GI50: 1.63 µM (inactive)
SN12C
  GI50: 1.73 µM (inactive)
SNB-75
  GI50: 2.74 µM (inactive)
HL-60
  GI50: 0.386 µM (active)
OVCAR-3
  GI50: 0.662 µM (active)
OVCAR-5
  GI50: 3.81 µM (inactive)
HCC 2998
  GI50: 1.85 µM (inactive)
T47D
  GI50: 2.15 µM (inactive)
KM12
  GI50: 1.74 µM (inactive)
SF-295
  GI50: 2.34 µM (inactive)
NCI-H226
  GI50: 1.5 µM (inactive)
RPMI-8226
  GI50: 0.53 µM (active)
SW-620
  GI50: 0.518 µM (active)
NCI-H23
  GI50: 1.83 µM (inactive)
